This passage reports Emax and EC50 results from US20250230155A1 (Vanderbilt University, priority 2021, published 2025).

This experiment has as its target T1, human mAChR M4 (Homo sapiens, UniProt P08173).
T1 construct: expressed in transfected cells
T1 sequence (P08173 1-479): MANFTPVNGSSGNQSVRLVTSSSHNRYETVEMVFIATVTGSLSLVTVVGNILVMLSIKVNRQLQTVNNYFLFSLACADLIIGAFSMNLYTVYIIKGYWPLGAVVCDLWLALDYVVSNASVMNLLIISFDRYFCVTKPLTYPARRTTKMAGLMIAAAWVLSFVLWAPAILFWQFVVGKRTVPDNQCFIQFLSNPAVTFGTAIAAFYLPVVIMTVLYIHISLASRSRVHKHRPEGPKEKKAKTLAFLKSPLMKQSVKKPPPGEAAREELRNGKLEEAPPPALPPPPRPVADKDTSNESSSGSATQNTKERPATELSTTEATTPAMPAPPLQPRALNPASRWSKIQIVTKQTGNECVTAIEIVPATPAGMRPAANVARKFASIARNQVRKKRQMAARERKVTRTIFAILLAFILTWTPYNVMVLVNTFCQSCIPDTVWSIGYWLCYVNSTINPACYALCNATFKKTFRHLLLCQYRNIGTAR
In words: mAChR M4 cell-based functional assay (calcium mobilization, CHO-K1 hM4-Gqi5 cells). The conditions noted are these: for Emax at 30 µM: CHO-K1, % ACh maximum at 30 μM, human M4; for EC50: positive allosteric modulator activity, increase in the EC20 acetylcholine response, CHO-K1 hM4-Gqi5 cells, read-out: Human M4 EC50. The method, boiled down: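 CHO-K1 cells stably expressing human M4 with chimeric Gqi5, loaded with Fluo-4 AM; compounds given as 11-point 1:3 curves and calcium flux read on FDSS at 1 Hz. Acetylcholine EC20 added at 144 s, EC80 at 230 s; agonist, PAM (EC20 potentiation) and antagonist (EC80 inhibition) EC50/Emax from four-parameter fits.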
In general terms: Calcium assays in cells follow changes in intracellular calcium, usually with a dye or a luminescent sensor.

With `Cc1c(C#N)nnc(N2CCc3ncc(Oc4cccc(F)c4F)cc3C2)c1C` [Example 352, 6-(3-(2,3-difluorophenoxy)-7,8-dihydro-1,6-naphthyridin-6(5H)-yl)-4,5-dimethylpyridazine-3-carbonitrile], the Emax (commonly the size of the effect at its maximum, as opposed to the concentration needed) at 30 µM is 64% and the EC50 – broadly, the concentration giving half of the maximal effect – turned out to be 0.233 µM.
Regarding `Cc1c(C#N)nnc(N2CCc3ncc(Oc4cc(F)ccc4F)cc3C2)c1C` [Example 353, 6-(3-(2,5-difluorophenoxy)-7,8-dihydro-1,6-naphthyridin-6(5H)-yl)-4,5-dimethylpyridazine-3-carbonitrile], the Emax at 30 µM was found to be 73% and the EC50 came to 0.126 µM.
Taken in the same sequence, the figures for `Cc1c(C#N)nnc(N2CCc3ncc(Oc4ccc(F)cc4F)cc3C2)c1C` [Example 354, 6-(3-(2,4-difluorophenoxy)-7,8-dihydro-1,6-naphthyridin-6(5H)-yl)-4,5-dimethylpyridazine-3-carbonitrile] were 64% and 0.271 µM.
With `Cc1cc(C#N)nnc1N1CCc2ncc(Oc3ccc(F)cc3F)cc2C1` [Example 355, 6-(3-(2,4-difluorophenoxy)-7,8-dihydro-1,6-naphthyridin-6(5H)-yl)-5-methylpyridazine-3-carbonitrile], the Emax at 30 µM worked out at 81% and the EC50 is 0.297 µM.
As to `Cc1cc(C#N)nnc1N1CCc2ncc(Oc3cccc(F)c3F)cc2C1` [Example 356, 6-(3-(2,3-difluorophenoxy)-7,8-dihydro-1,6-naphthyridin-6(5H)-yl)-5-methylpyridazine-3-carbonitrile], the Emax at 30 µM is 83% and the EC50 amounted to 0.276 µM.
Consider `Cc1cc(C#N)nnc1N1CCc2ncc(Oc3cc(F)ccc3F)cc2C1` [Example 357, 6-(3-(2,5-difluorophenoxy)-7,8-dihydro-1,6-naphthyridin-6(5H)-yl)-5-methylpyridazine-3-carbonitrile], for which the Emax at 30 µM came to 84% and the EC50 amounted to 0.127 µM.
In the case of `Cc1ccc(Oc2cnc3c(c2)CN(c2nnc(C#N)c(C)c2C)CC3)c(F)c1` [Example 358, 6-(3-(2-fluoro-4-methylphenoxy)-7,8-dihydro-1,6-naphthyridin-6(5H)-yl)-4,5-dimethylpyridazine-3-carbonitrile], the Emax at 30 µM turned out to be 82% and the EC50 turned out to be 0.32 µM.
Consider `Cc1cc(C#N)cnc1N1CCc2ncc(N3CCC(C(F)(F)F)n4nccc43)cc2C1` (stereo not drawn) [Example 359, 5-methyl-6-(3-(7-(trifluoromethyl)-6,7-dihydropyrazolo[1,5-a]pyrimidin-4(5H)-yl)-7,8-dihydro-1,6-naphthyridin-6(5H)-yl)nicotinonitrile], for which the Emax at 30 µM is 120% and the EC50 turned out to be 0.472 µM.
In the case of `Cc1cc(C#N)nnc1N1CCc2ncc(N3CCCn4nccc43)cc2C1` [Example 360, 6-(3-(6,7-dihydropyrazolo[1,5-a]pyrimidin-4(5H)-yl)-7,8-dihydro-1,6-naphthyridin-6(5H)-yl)-5-methylpyridazine-3-carbonitrile], the Emax at 30 µM was determined as 129% and the EC50 was found to be 0.088 µM.
The matching figures for `Cc1cc(C#N)nnc1N1CCc2ncc(-c3cnn(C4CC4)c3)cc2C1` [Example 361, 6-(3-(1-cyclopropyl-1H-pyrazol-4-yl)-7,8-dihydro-1,6-naphthyridin-6(5H)-yl)-5-methylpyridazine-3-carbonitrile]: 115% and 0.786 µM.
For the molecule `Cc1cc(C#N)cnc1N1CCc2ncc(N3CCCc4ncccc43)cc2C1` [Example 362, 6-(3-(3,4-dihydro-1,5-naphthyridin-1(2H)-yl)-7,8-dihydro-1,6-naphthyridin-6(5H)-yl)-5-methylnicotinonitrile], the Emax at 30 µM came to 96% and the EC50 turned out to be 0.076 µM.
`Cc1cc2n(n1)CCCN2c1cnc2c(c1)CN(c1nnc(C#N)c(C)c1C)CC2` [Example 363, 4,5-dimethyl-6-(3-(2-methyl-6,7-dihydropyrazolo[1,5-a]pyrimidin-4(5H)-yl)-7,8-dihydro-1,6-naphthyridin-6(5H)-yl)pyridazine-3-carbonitrile]: the Emax at 30 µM turned out to be 90% and the EC50 was determined as 0.148 µM.
In the case of `Cc1c(C#N)nnc(N2CCc3ncc(N4CCC(C)n5nccc54)cc3C2)c1C` (stereo not drawn) [Example 364, 4,5-dimethyl-6-(3-(7-methyl-6,7-dihydropyrazolo[1,5-a]pyrimidin-4(5H)-yl)-7,8-dihydro-1,6-naphthyridin-6(5H)-yl)pyridazine-3-carbonitrile], the Emax at 30 µM amounted to 98% and the EC50 stood at 0.321 µM.
In the case of `Cc1cc(C#N)cnc1N1CCc2ncc(Cc3ccccc3F)cc2C1` [Example 365, 6-(3-(2-fluorobenzyl)-7,8-dihydro-1,6-naphthyridin-6(5H)-yl)-5-methylnicotinonitrile], the Emax at 30 µM was 89% and the EC50 stood at 0.358 µM.
Turning to `Cc1cc(C#N)cnc1N1Cc2cc(C(F)(F)F)cnc2CC1C` (stereo not drawn) [Example 366, 5-methyl-6-(7-methyl-3-(trifluoromethyl)-7,8-dihydro-1,6-naphthyridin-6(5H)-yl)nicotinonitrile], the Emax at 30 µM is 96% and the EC50 turned out to be 0.305 µM.
For the molecule `Cc1c(C#N)nnc(N2Cc3cc(C(F)(F)F)cnc3CC2C)c1C` (stereo not drawn) [Example 367, 4,5-dimethyl-6-(7-methyl-3-(trifluoromethyl)-7,8-dihydro-1,6-naphthyridin-6(5H)-yl)pyridazine-3-carbonitrile], the Emax at 30 µM amounted to 89% and the EC50 was 0.209 µM.
`Cc1ccc(F)c(Oc2cnc3c(c2)CN(c2ncc(C#N)cc2C)CC3)c1` [Example 368, 6-(3-(2-fluoro-5-methylphenoxy)-7,8-dihydro-1,6-naphthyridin-6(5H)-yl)-5-methylnicotinonitrile]: the Emax at 30 µM was 94% and the EC50 amounted to 1.7 µM.
Turning to `Cc1c(C#N)nnc(N2CCc3ncc(Cc4ccccc4F)cc3C2)c1C` [Example 369, 6-(3-(2-fluorobenzyl)-7,8-dihydro-1,6-naphthyridin-6(5H)-yl)-4,5-dimethylpyridazine-3-carbonitrile], the Emax at 30 µM was determined as 63% and the EC50 came out at 0.424 µM.
Regarding `Cc1cc(C#N)cnc1N1CCc2ncc(N3CCOC(C)(C)C3)cc2C1` [Example 370, 6-(3-(2,2-dimethylmorpholino)-7,8-dihydro-1,6-naphthyridin-6(5H)-yl)-5-methylnicotinonitrile], the Emax at 30 µM turned out to be 82% and the EC50 amounted to 0.081 µM.
Taken in the same sequence, the figures for `COc1nc(N2CCc3ncc(C(F)(F)F)cc3C2)c(C)cc1C#N` [Example 371, 2-methoxy-5-methyl-6-(3-(trifluoromethyl)-7,8-dihydro-1,6-naphthyridin-6(5H)-yl)nicotinonitrile] were 75% and 4.35 µM.
Taken in the same sequence, the figures for `Cc1cc(C#N)c(-c2cccn2C)nc1N1CCc2ncc(C(F)(F)F)cc2C1` [Example 372, 5-methyl-2-(1-methyl-1H-pyrrol-2-yl)-6-(3-(trifluoromethyl)-7,8-dihydro-1,6-naphthyridin-6(5H)-yl)nicotinonitrile] were 55% and 5.8 µM.
`CCOc1nc(N2CCc3ncc(C(F)(F)F)cc3C2)c(C)cc1C#N` [Example 373, 2-ethoxy-5-methyl-6-(3-(trifluoromethyl)-7,8-dihydro-1,6-naphthyridin-6(5H)-yl)nicotinonitrile]: the Emax at 30 µM turned out to be 64% and the EC50 is 1.74 µM.
Turning to `Cc1c(C#N)nnc(N2CCc3ncc(N4CC(C)Cn5nccc54)cc3C2)c1C` (stereo not drawn) [Example 374, 4,5-dimethyl-6-(3-(6-methyl-6,7-dihydropyrazolo[1,5-a]pyrimidin-4(5H)-yl)-7,8-dihydro-1,6-naphthyridin-6(5H)-yl)pyridazine-3-carbonitrile], the Emax at 30 µM worked out at 96% and the EC50 is 0.248 µM.
Take `Cc1cc(C#N)cnc1N1CCc2ncc(N3CCO[C@H](c4ccccc4)C3)cc2C1` [Example 375, (R)-5-methyl-6-(3-(2-phenylmorpholino)-7,8-dihydro-1,6-naphthyridin-6(5H)-yl)nicotinonitrile]: the Emax at 30 µM is 85% and the EC50 was determined as 1.32 µM.
Take `Cc1c(C#N)nnc(N2CCc3ncc(N4CCO[C@H](c5ccccc5)C4)cc3C2)c1C` [Example 376, (R)-4,5-dimethyl-6-(3-(2-phenylmorpholino)-7,8-dihydro-1,6-naphthyridin-6(5H)-yl)pyridazine-3-carbonitrile]: the Emax at 30 µM turned out to be 90% and the EC50 is 1.38 µM.
As to `Cc1cc(C#N)cnc1N1CCc2nc(C)c(N3CCOC(C)(C)C3)cc2C1` [Example 377, 6-(3-(2,2-dimethylmorpholino)-2-methyl-7,8-dihydro-1,6-naphthyridin-6(5H)-yl)-5-methylnicotinonitrile], the EC50 came out at 0.76 µM. For the setting “CHO-K1”, the Emax amounted to 76%.
In the case of `Cc1cc(C#N)cnc1N1CCc2ncc(N3CCO[C@@H](c4ccccc4)C3)cc2C1` [Example 378, (S)-5-methyl-6-(3-(2-phenylmorpholino)-7,8-dihydro-1,6-naphthyridin-6(5H)-yl)nicotinonitrile], the Emax at 30 µM was 62% and the concentration for a half-maximal effect (EC50) was found to be 4.31 µM.
